PMC5271370, “A High-Content Assay Enables the Automated Screening and Identification of Small Molecules with Specific ALDH1A1-Inhibitory Activity” (PLoS ONE, 2017)
Like-named read-outs stand apart in the source and are kept apart here.

Key:
[1] = target: T1, Human ALDH1A1 (Homo sapiens, UniProt P00352); assay: 1,536-well enzymatic assay (NADH fluorescence), ALDH1A1; type: biochemical; conditions: validation set; 20 nM enzyme, NAD+ and propionaldehyde; read-out: Biochemical IC50 ALDH1A1
T1 construct: made in house
T1 sequence (P00352 1-501): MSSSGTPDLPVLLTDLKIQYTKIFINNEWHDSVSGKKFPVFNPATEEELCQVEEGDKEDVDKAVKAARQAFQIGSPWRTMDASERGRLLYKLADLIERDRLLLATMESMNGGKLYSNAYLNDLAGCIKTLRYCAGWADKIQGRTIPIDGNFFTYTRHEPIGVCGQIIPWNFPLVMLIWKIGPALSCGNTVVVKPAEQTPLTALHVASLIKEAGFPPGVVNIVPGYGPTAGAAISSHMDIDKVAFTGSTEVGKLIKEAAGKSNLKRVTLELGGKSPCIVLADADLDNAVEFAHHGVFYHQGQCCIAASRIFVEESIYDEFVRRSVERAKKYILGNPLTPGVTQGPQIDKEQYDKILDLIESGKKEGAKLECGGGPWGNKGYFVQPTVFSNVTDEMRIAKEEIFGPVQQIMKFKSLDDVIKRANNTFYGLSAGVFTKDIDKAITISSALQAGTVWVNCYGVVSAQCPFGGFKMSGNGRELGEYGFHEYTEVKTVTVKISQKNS
Text: To validate our optimized assay, we assembled a set of 20 previously reported ALDH inhibitors, with varying degrees of target specificity (Table 1 and S4 Fig). […] Briefly, the assay measures the dehydrogenase activity of recombinant human ALDH1A1, ALDH1A2, ALDH1A3, ALDH2 or ALDH3A1 using NAD(P)^+ and either propionaldehyde or benzaldehyde as substrates. An orthogonal resorufin-based assay format was also run with isolated ALDH1A1 to rule out potential false positives due to intrinsic compound fluorescence.
Human ALDH1A1 and ALDH3A1 were expressed and purified as described elsewhere. Human ALDH2 was purchased from Abcam (ab87415). Human ALDH1A2 and ALDH1A3 were purchased from MyBioSource (MBS1005929; San Diego, CA) and ThermoFisher (11636H07E50), respectively. The inhibitory activity of compounds against ALDHs was measured according to protocols described previously. Briefly, 3 μL of enzyme (final concentrations of 20 nM for ALDH1A1, 50 nM for ALDH1A2, 50 nM for ALDH1A3, 75 nM for ALDH2 and 5 nM for ALDH3A1) in assay buffer (100 mM HEPES pH 7.5 with 0.01% Tween 20) were dispensed into a 1,536-well solid-bottom black plate (Greiner Bio One, Monroe, NC). […] Samples were incubated (room temperature, protected from light) for 15 minutes followed by a 1 μL substrate addition of NAD^+ and Propionaldehyde (final concentrations of 1 mM and 80 μM, respectively) for ALDH1A1, 1A2, 1A3, and ALDH2 or NADP^+ and benzaldehyde (final concentrations of 1 mM and 200 μM, respectively) for ALDH3A1. Plates were centrifuged at 1,000 rpm for 15 seconds, then read in kinetic mode on a ViewLux High-throughput CCD imager (PerkinElmer, Waltham, MA) equipped with standard UV fluorescence optics (340 nm excitation, 450 nm emission) for 5 (ALDH1A1, ALDH1A2, ALDH2, ALDH3A1) or 30 (ALDH1A3) minutes. The change in fluorescence intensity over the 5- or 30-minute reaction period was normalized against no-inhibitor and no-enzyme controls and the resulting percent inhibition data were fitted to a 4-parameter Hill equation. Bay-11 7085 was used as intraplate control. To account for artifacts due to intrinsic compound fluorescence in the above spectrum, compounds were also tested in an orthogonal resorufin assay format with optics of excitation 525 nm/emission 598 nm as described before. The same parameters as the NADH assay were used for the resorufin assay, with the addition of (final) 133 μg/mL diaphorase and 37 μM resazurin to the assay solution. Same controls were used in both formats.

[2] = test system: MIA PaCa-2 cells; assay: 1,536-well high-content imaging ALDEFLUOR assay, MIA PaCa-2; type: cell-based, human; conditions: semi-automated; active = high quality concentration response curve and >50% efficacy; up to 45.8 μM
Description: (§1) To miniaturize the assay into a 1536-well format amenable to qHTS, we chose MIA PaCa-2 and HT-29 because of their high levels of ALDH1A1(Fig 1A). Utilizing the 8-step protocol described by Ming et al. as a starting point, we developed a “semi-automated” protocol described in S1 Table. Briefly, we plated 1,000 cells in a volume of 5 μL/well into black-optical quality clear bottom 1,536-well plates, and allowed cells to attach overnight. Culture media was subsequently removed by inverting and centrifuging plates using a plate adaptor as previously described and replaced with 5 μL of a solution of either 500 or 100 nM BAAA substrate in ALDEFLUOR buffer. To identify cells based on nuclear staining, we also included 0.5 nM Hoechst 33342 in the above buffer. […] After incubating the plate for 30 minutes at 37°C, 5% CO2, 85% RH, the remaining substrate was removed by centrifugation as above and replaced with 3 μL of ALDEFLUOR buffer. Fluorescence was subsequently imaged using the IN Cell Analyzer 2200 high-content widefield fluorescence based imager and the resulting images were quantified using the IN Cell Investigator v1.6.2 analysis software (see Experimental Procedures for analysis details).
(§2) The ALDEFLUOR kit was purchased from […] Technologies (Vancouver, Canada; #01700). Cells (5 μL) were dispensed into black, optical quality (cyclic olefin copolymer) clear bottom, medium binding TC treated 1,536-well plates (Aurora Microplates, Whitefish MT) using a Multidrop Combi dispenser (ThermoFisher) and incubated overnight (37°C, 5% CO2, 85% RH). Media was subsequently removed by centrifuging plates upside down using a plate adaptor to collect media. A solution of BAAA substrate ([…] Technologies) and Hoechst 33342 (ThermoFisher, final concentrations of 500 nM and 0.5 nM, respectively) in ALDEFLUOR buffer ([…] Technologies #01700) was dispensed onto cells using a Multidrop Combi followed by immediate transfer (23 nL) of compound or control solutions using a Wako Pin-tool (final percentage of DMSO in the cell plates was 0.5%). Unless otherwise noted, all compounds were assayed as 16-point dilutions spanning a final concentration range of 1.4 nM to […]. […] Cells were incubated for 30 minutes or the indicated amount of time at 37°C, 5% CO2, 85% RH to allow the conversion of BAAA into BAA. Supernatant was subsequently removed by centrifugation as described above, then ALDEFLUOR buffer (3 μl) was dispensed by Multidrop Combi before imaging on an IN Cell 2200 (GE Healthcare).
(§3) The above assay was modified for an online robotic screening system. After cell plating and overnight incubation, 4 μL of media were removed using a 64-tip metal aspirator head on a Wako aspirator station, leaving 1 μL remaining in the well, followed by a 4 μL dispense of BAAA and Hoechst 33342 in ALDEFLUOR buffer, for a final concentration of 500 nM and 0.5 nM, respectively. Immediately following the dispense, 23 nL of compound or control solutions were transferred using a Wako Pin-tool. Cells were incubated for 30 minutes at 37°C, 5% CO2, 85% RH, followed by a 4 μL media removal using the Wako aspirator, and a subsequent 3 μL addition of ALDEFLUOR buffer. Plates were then immediately read on the IN Cell 2200 as described below.
(§4) For images captured on the IN Cell 2200 widefield automated microscope, a 10x 0.45 NA Plan Apo objective lens was used to capture the entire well of the 1,536-well plate using standard DAPI (390/18x, 432/48m) and FITC (475/28x, 525/48m) filter sets at 50 msec and 100 msec exposures, respectively. Images were subsequently analyzed using IN Cell Investigator v1.6.2 analysis software’s canned Multi-Target Analysis algorithm (GE Healthcare). Hoechst stained nuclei were identified using top hat segmentation with a minimum area of 75 μm^2 and sensitivity of 93. […]

[3] = test system: HT-29 cells; assay: 1,536-well high-content imaging ALDEFLUOR assay, HT-29; type: cell-based, human
Description: as §1, §2, §3, §4

[4] = test system: LN-229 cells; assay: 1,536-well high-content imaging ALDEFLUOR assay, LN-229; type: cell-based, human; conditions: fully automated assay, Fig 5
Description: We next sought to test if the fully automated high-content assay could be used to detect ALDH1A1-specific inhibitors.
as §2
as §3, with “Cells were incubated for 30 minutes at 37°C, 5% CO2, 85% RH, followed by a 4 μL media removal using the Wako aspirator, and a subsequent 3 μL addition of ALDEFLUOR buffer.” left out
as §4, with “Healthcare).” for “Healthcare). Hoechst stained nuclei were identified using top hat segmentation with a minimum area of 75 μm^2 and sensitivity of 93.”
The same controls were also used for the calculation of the Z’ factor for each assay. The Z’ factor, a measure of assay quality control, was determined as previously described. […] All concentration–response curves were fitted as before and IC50 were calculated with the GraphPad Prism software.

[5] = test system: ALDH1A1; conditions: reported ALDH target 1A1; read-out: Reported Biochemical IC50, ALDH1A1; cited from earlier work

IC50 ([3]; fully automated assay, n = 4, read-out: ALDEFLUOR IC50 HT-29 (Fig 5)) [µM] | IC50 ([3]; validation set, semi-automated protocol, 16-point dilution, 1,000 cells/well, 500 nM BAAA, 30 min, read-out: Aldefluor IC50 HT-29) [µM] | Compound | IC50 [1] [µM] | Activity in ALDEFLUOR assay, MIA PaCa-2 [2] | Activity in ALDEFLUOR assay, HT-29 ([3]; semi-automated, active = high quality concentration response curve and >50% efficacy, up to 45.8 μM) | Inhibition of BAAA turnover in LN-229 (ALDH1A1-negative cells) [4] | IC50 [5] [µM]
 |  | CCSC(=O)N1CCCCCC1 [Molinate] | 27 | tested negative | tested negative |  | 
3.3 | 4.33 | CC(C)CCn1c(CN2CCN(C(=O)C3CC3)CC2)nc2c1c(=O)n(C)c(=O)n2C [NCT-501] |  |  |  | inhibited BAAA turnover only in ALDH1A1-expressing cells | […]
